Experimental data as given in publication PMC10620772, “Design, synthesis, and biological evaluation of new pyrimidine-5-carbonitrile derivatives as novel anti-cancer, dual EGFR^WT/COX-2 inhibitors with docking studies” (RSC Advances, 2023).

What was measured:
Assay in all cases: NCI60 antitumor screening
Type in all cases: cell-based, human
SN12C = conditions: Homo sapiens; 10 μM single dose; SN12C (renal cancer); read-out: growth inhibition percent (GI%)
A549/ATCC = conditions: Homo sapiens; 10 μM single dose; A549/ATCC (non-small cell lung cancer); read-out: growth inhibition percent (GI%)
UACC-62 = conditions: Homo sapiens; 10 μM single dose; UACC-62 (melanoma); read-out: growth inhibition percent (GI%)
HL-60(TB) = conditions: Homo sapiens; 10 μM single dose; HL-60(TB) (leukaemia); read-out: growth inhibition percent (GI%)
HT29 = conditions: Homo sapiens, HT-29; 10 μM single dose; HT29 (colon cancer); read-out: growth inhibition percent (GI%)
SNB-75 = conditions: Homo sapiens; 10 μM single dose; SNB-75 (CNS cancer); read-out: growth inhibition percent (GI%)
SNB-19 = conditions: Homo sapiens; 10 μM single dose; SNB-19 (CNS cancer); read-out: growth inhibition percent (GI%)
OVCAR-8 = conditions: Homo sapiens; 10 μM single dose; OVCAR-8 (ovarian cancer); read-out: growth inhibition percent (GI%)
SK-MEL-5 = conditions: Homo sapiens; 10 μM single dose; SK-MEL-5 (melanoma); read-out: growth inhibition percent (GI%)
UACC-257 = conditions: Homo sapiens; 10 μM single dose; UACC-257 (melanoma); read-out: growth inhibition percent (GI%)
786–0 = conditions: Homo sapiens; 10 μM single dose; 786–0 (renal cancer); read-out: growth inhibition percent (GI%)
NCI-H23 = conditions: Homo sapiens; 10 μM single dose; NCI-H23 (non-small cell lung cancer); read-out: growth inhibition percent (GI%)
SK-MEL-2 = conditions: Homo sapiens; 10 μM single dose; SK-MEL-2 (melanoma); read-out: growth inhibition percent (GI%)
OVCAR-5 = conditions: Homo sapiens; 10 μM single dose; OVCAR-5 (ovarian cancer); read-out: growth inhibition percent (GI%)
DU-145 = conditions: Homo sapiens, DU-145; read-out: growth inhibition percent (GI%)
SF-295 = conditions: Homo sapiens; 10 μM single dose; SF-295 (CNS cancer); read-out: growth inhibition percent (GI%)
MCF7 = conditions: Homo sapiens; 10 μM single dose; MCF7 (breast cancer); read-out: growth inhibition percent (GI%)
CAKI-1 = conditions: Homo sapiens; 10 μM single dose; CAKI-1 (renal cancer); read-out: growth inhibition percent (GI%)
TK-10 = conditions: Homo sapiens; 10 μM single dose; TK-10 (renal cancer); read-out: growth inhibition percent (GI%)
M14 = conditions: Homo sapiens; 10 μM single dose; M14 (melanoma); read-out: growth inhibition percent (GI%)
RXF 393 = conditions: Homo sapiens; 10 μM single dose; RXF 393 (renal cancer); read-out: growth inhibition percent (GI%)
KM12 = conditions: Homo sapiens; 10 μM single dose; KM12 (colon cancer); read-out: growth inhibition percent (GI%)
SK-OV-3 = conditions: Homo sapiens; 10 μM single dose; SK-OV-3 (ovarian cancer); read-out: growth inhibition percent (GI%)
HOP-92 = conditions: Homo sapiens; 10 μM single dose; HOP-92 (non-small cell lung cancer); read-out: growth inhibition percent (GI%)
OVCAR-3 = conditions: Homo sapiens; 10 μM single dose; OVCAR-3 (ovarian cancer); read-out: growth inhibition percent (GI%)
NCI-H226 = conditions: Homo sapiens; 10 μM single dose; NCI-H226 (non-small cell lung cancer); read-out: growth inhibition percent (GI%)
NCI-H522 = conditions: Homo sapiens; 10 μM single dose; NCI-H522 (non-small cell lung cancer); read-out: growth inhibition percent (GI%)
IGROV1 = conditions: Homo sapiens, IGROV-1; 10 μM single dose; IGROV1 (ovarian cancer); read-out: growth inhibition percent (GI%)
UO-31 = conditions: Homo sapiens; 10 μM single dose; UO-31 (renal cancer); read-out: growth inhibition percent (GI%)
CCRF-CEM = conditions: Homo sapiens; 10 μM single dose; CCRF-CEM (leukaemia); read-out: growth inhibition percent (GI%)
MDA-MB-468 = conditions: Homo sapiens; 10 μM single dose; MDA-MB-468 (breast cancer); read-out: growth inhibition percent (GI%)
SF-268 = conditions: Homo sapiens; 10 μM single dose; SF-268 (CNS cancer); read-out: growth inhibition percent (GI%)
PC-3 = conditions: Homo sapiens; 10 μM single dose; PC-3 (prostate cancer); read-out: growth inhibition percent (GI%)
ACHN = conditions: Homo sapiens; 10 μM single dose; ACHN (renal cancer); read-out: growth inhibition percent (GI%)
HCC-2998 = conditions: Homo sapiens; 10 μM single dose; HCC-2998 (colon cancer); read-out: growth inhibition percent (GI%)
HCT-15 = conditions: Homo sapiens; 10 μM single dose; HCT-15 (colon cancer); read-out: growth inhibition percent (GI%)
RPMI-8226 = conditions: Homo sapiens; 10 μM single dose; RPMI-8226 (leukaemia); read-out: growth inhibition percent (GI%)
BT-549 = conditions: Homo sapiens; 10 μM single dose; BT-549 (breast cancer); read-out: growth inhibition percent (GI%)
MOLT-4 = conditions: Homo sapiens; 10 μM single dose; MOLT-4 (leukaemia); read-out: growth inhibition percent (GI%)

With `N#Cc1c(-c2ccc(F)cc2)nc(SCc2ccccc2)nc1N1CCN(c2ccccc2)CC1` [4m, 2-(Benzylthio)-4-(4-fluorophenyl)-6-(4-phenylpiperazin-1-yl) pyrimidine-5-carbonitrile] the inhibition at 10 µM (SN12C) was under 10%, the inhibition at 10 µM (A549/ATCC) was under 10% and the inhibition at 10 µM (UACC-62) was 16.2%. For the same molecule, the inhibition at 10 µM (HL-60(TB)) was under 10%, the inhibition at 10 µM (HT29) was under 10% and the inhibition at 10 µM (SNB-75) was under 10%. For the same molecule, the inhibition at 10 µM (SNB-19) was under 10%, the inhibition at 10 µM (OVCAR-8) was under 10% and the inhibition at 10 µM (SK-MEL-5) was under 10%. The inhibition at 10 µM (UACC-257) was under 10%, the inhibition at 10 µM (786–0) was under 10% and the inhibition at 10 µM (NCI-H23) was under 10%. It also gave an inhibition at 10 µM (SK-MEL-2) of under 10%, an inhibition at 10 µM (OVCAR-5) of under 10% and an inhibition at 10 µM (DU-145) of under 10%. The inhibition at 10 µM (SF-295) was under 10%, the inhibition at 10 µM (MCF7) was 16.1% and the inhibition at 10 µM (CAKI-1) was 10.7%. The inhibition at 10 µM (TK-10) was under 10%, the inhibition at 10 µM (M14) was under 10% and the inhibition at 10 µM (RXF 393) was under 10%. The inhibition at 10 µM (KM12) was under 10%, the inhibition at 10 µM (SK-OV-3) was under 10% and the inhibition at 10 µM (HOP-92) was under 10%. The inhibition at 10 µM (OVCAR-3) was under 10%, the inhibition at 10 µM (NCI-H226) was under 10% and the inhibition at 10 µM (NCI-H522) was under 10%. For the same molecule, the inhibition at 10 µM (IGROV1) was under 10%, the inhibition at 10 µM (UO-31) was under 10% and the inhibition at 10 µM (CCRF-CEM) was 11.1%. For the same molecule, the inhibition at 10 µM (MDA-MB-468) was under 10%, the inhibition at 10 µM (SF-268) was under 10% and the inhibition at 10 µM (PC-3) was under 10%. The inhibition at 10 µM (ACHN) was under 10%, the inhibition at 10 µM (HCC-2998) was under 10% and the inhibition at 10 µM (HCT-15) was 10.8%. For the same molecule, the inhibition at 10 µM (RPMI-8226) was 14.2%, the inhibition at 10 µM (BT-549) was under 10% and the inhibition at 10 µM (MOLT-4) was under 10%.
Molecule `N#Cc1c(-c2ccc(F)cc2)nc(SCc2ccc(F)cc2)nc1N1CCN(c2ccccc2)CC1` [4n, 2-((4-Fluorobenzyl)thio)-4-(4-fluorophenyl)-6-(4-phenylpiperazin-1-yl)pyrimidine-5-carbonitrile] has an inhibition at 10 µM (SN12C) of under 10%, an inhibition at 10 µM (A549/ATCC) of under 10% and an inhibition at 10 µM (UACC-62) of 25.8%. It also gave an inhibition at 10 µM (HL-60(TB)) of under 10%, an inhibition at 10 µM (HT29) of under 10% and an inhibition at 10 µM (SNB-75) of 15.6%. It also gave an inhibition at 10 µM (SNB-19) of under 10%, an inhibition at 10 µM (OVCAR-8) of under 10% and an inhibition at 10 µM (SK-MEL-5) of 12.4%. For the same molecule, the inhibition at 10 µM (UACC-257) was 12.9%, the inhibition at 10 µM (786–0) was under 10% and the inhibition at 10 µM (NCI-H23) was under 10%. The inhibition at 10 µM (SK-MEL-2) was 10.6%, the inhibition at 10 µM (OVCAR-5) was under 10% and the inhibition at 10 µM (DU-145) was under 10%. It also gave an inhibition at 10 µM (SF-295) of under 10%, an inhibition at 10 µM (MCF7) of 24.8% and an inhibition at 10 µM (CAKI-1) of 16.3%. It also gave an inhibition at 10 µM (TK-10) of under 10%, an inhibition at 10 µM (M14) of 10.1% and an inhibition at 10 µM (RXF 393) of under 10%. The inhibition at 10 µM (KM12) was under 10%, the inhibition at 10 µM (SK-OV-3) was under 10% and the inhibition at 10 µM (HOP-92) was under 10%. For the same molecule, the inhibition at 10 µM (OVCAR-3) was under 10%, the inhibition at 10 µM (NCI-H226) was under 10% and the inhibition at 10 µM (NCI-H522) was 10.3%. The inhibition at 10 µM (IGROV1) was under 10%, the inhibition at 10 µM (UO-31) was under 10% and the inhibition at 10 µM (CCRF-CEM) was 16.6%. For the same molecule, the inhibition at 10 µM (MDA-MB-468) was under 10%, the inhibition at 10 µM (SF-268) was 14.1% and the inhibition at 10 µM (PC-3) was 25.2%. The inhibition at 10 µM (ACHN) was under 10%, the inhibition at 10 µM (HCC-2998) was under 10% and the inhibition at 10 µM (HCT-15) was under 10%. For the same molecule, the inhibition at 10 µM (RPMI-8226) was 22.3%, the inhibition at 10 µM (BT-549) was under 10% and the inhibition at 10 µM (MOLT-4) was 12.4%.
`N#Cc1c(-c2ccc(F)cc2)nc(SCc2ccc([N+](=O)[O-])cc2)nc1N1CCN(c2ccccc2)CC1` [4o, 4-(4-Fluorophenyl)-2-((4-nitrobenzyl)thio)-6-(4-phenylpiperazin-1-yl)pyrimidine-5-carbonitrile] was tested, and the inhibition at 10 µM (SN12C) was under 10%, the inhibition at 10 µM (A549/ATCC) was under 10% and the inhibition at 10 µM (UACC-62) was 18.1%. For the same molecule, the inhibition at 10 µM (HL-60(TB)) was under 10%, the inhibition at 10 µM (HT29) was under 10% and the inhibition at 10 µM (SNB-75) was 12.4%. The inhibition at 10 µM (SNB-19) was under 10%, the inhibition at 10 µM (OVCAR-8) was under 10% and the inhibition at 10 µM (SK-MEL-5) was under 10%. It also gave an inhibition at 10 µM (UACC-257) of under 10%, an inhibition at 10 µM (786–0) of under 10% and an inhibition at 10 µM (NCI-H23) of under 10%. It also gave an inhibition at 10 µM (SK-MEL-2) of under 10%, an inhibition at 10 µM (OVCAR-5) of under 10% and an inhibition at 10 µM (DU-145) of under 10%. It also gave an inhibition at 10 µM (SF-295) of under 10%, an inhibition at 10 µM (MCF7) of 14.8% and an inhibition at 10 µM (CAKI-1) of 13.7%. It also gave an inhibition at 10 µM (TK-10) of under 10%, an inhibition at 10 µM (M14) of under 10% and an inhibition at 10 µM (RXF 393) of under 10%. It also gave an inhibition at 10 µM (KM12) of under 10%, an inhibition at 10 µM (SK-OV-3) of under 10% and an inhibition at 10 µM (HOP-92) of under 10%. It also gave an inhibition at 10 µM (OVCAR-3) of under 10%, an inhibition at 10 µM (NCI-H226) of under 10% and an inhibition at 10 µM (NCI-H522) of under 10%. For the same molecule, the inhibition at 10 µM (IGROV1) was under 10%, the inhibition at 10 µM (UO-31) was under 10% and the inhibition at 10 µM (CCRF-CEM) was under 10%. It also gave an inhibition at 10 µM (MDA-MB-468) of 10.9%, an inhibition at 10 µM (SF-268) of under 10% and an inhibition at 10 µM (PC-3) of under 10%. The inhibition at 10 µM (ACHN) was under 10%, the inhibition at 10 µM (HCC-2998) was under 10% and the inhibition at 10 µM (HCT-15) was under 10%. The inhibition at 10 µM (RPMI-8226) was 15.3%, the inhibition at 10 µM (BT-549) was under 10% and the inhibition at 10 µM (MOLT-4) was under 10%.
